Reference: US8952024B2, “Herbicidal pyrimidone derivatives” (E I du Pont de Nemours and Company, priority 2009, dated 2015)

How the values were obtained:
Format in all cases: in vivo
[1] = tested on: windgrass (Apera spica-venti); assay: Test B postemergence plant response
How it was run: (§1)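 Plants at the 1- to 4-leaf stage (2 to 18 cm tall), grown in pots of peat moss/vermiculite medium with wetting agent and starter nutrients, received postemergence applications of test chemicals. After 13 to 15 days in a greenhouse, injury was rated visually against untreated controls on a 0 (no effect) to 100 (complete control) scale.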

[2] = tested on: chickweed (Stellaria media); assay: Test B postemergence plant response
How it was run: as §1

[3] = tested on: canarygrass (Phalaris minor); assay: Test B postemergence plant response
How it was run: as §1

[4] = tested on: winter barley (Hordeum vulgare); assay: Test B postemergence plant response
How it was run: as §1

[5] = tested on: galium (catchweed bedstraw, Galium aparine); assay: Test B pre-/postemergence plant response; details: Preemergence
How it was run: (§2)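 Seeds were sown in loam soil/sand blend and treated preemergence with compound in non-phytotoxic solvent mixture containing surfactant; postemergence sprays, same formulation, went onto plants 2 to 18 cm (1- to 4-leaf stage) in peat-based planting medium. Greenhouse 13 to 15 days, then visual rating versus untreated controls, 0 (no effect) to 100 (complete control).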

[6] = tested on: Russian thistle (Salsola kali); assay: Test B pre-/postemergence plant response; details: Preemergence, 125 g ai/ha; scale 0 to 100, 0 no effect, 100 complete control
How it was run: as §2

[7] = tested on: bermudagrass (Cynodon dactylon); assay: Test B pre-/postemergence plant response
How it was run: as §2

[8] = tested on: nightshade (eastern black nightshade, Solanum ptycanthum); assay: Test B pre-/postemergence plant response; details: Preemergence
How it was run: as §2

[9] = tested on: sunflower (common oilseed sunflower, Helianthus annuus); assay: Test B pre-/postemergence plant response; details: Preemergence
How it was run: as §2

[10] = tested on: morningglory (Ipomoea coccinea); assay: Test B pre-/postemergence plant response
How it was run: as §2

[11] = tested on: ducksalad (Heteranthera limosa); assay: Test B flooded paddy test; details: for Plant response rating, Flood, Ducksalad: 250 g ai/ha, flooded paddy test, visual rating on 0 to 100 scale (0 no effect, 100 complete control) after 13 to 15 days; for Plant response rating, Ducksalad: Flood (flooded paddy test), 13 to 15 days
How it was run: (§3)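 Flooded-pot test: water raised to 3 cm above soil when treating, compound put in the water, level unchanged thereafter. Plants were at 2 leaves. Readout after 13 to 15 days, visual, relative to controls; 0 signifies no effect and 100 complete control.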

[12] = tested on: barnyardgrass (Echinochloa crus-galli); assay: Test B flooded paddy test; details: for Plant response rating, Flood, Barnyardgrass: 250 g ai/ha, flooded paddy test, visual rating on 0 to 100 scale (0 no effect, 100 complete control) after 13 to 15 days; for Plant response rating, Barnyardgrass: Flood (flooded paddy test), 13 to 15 days
How it was run: as §3

[13] = tested on: umbrella sedge (Cyperus difformis); assay: Test B flooded paddy test; details: for Plant response rating, Flood, Sedge, Umbrella: 250 g ai/ha, flooded paddy test, visual rating on 0 to 100 scale (0 no effect, 100 complete control) after 13 to 15 days; for Plant response rating, Sedge, Umbrella: Flood (flooded paddy test), 13 to 15 days
How it was run: as §3

[14] = tested on: rice (Oryza sativa); assay: Test B flooded paddy test; details: for Plant response rating, Flood, Rice: 250 g ai/ha, flooded paddy test, visual rating on 0 to 100 scale (0 no effect, 100 complete control) after 13 to 15 days; for Plant response rating, Rice: Flood (flooded paddy test), 13 to 15 days
How it was run: as §3

[15] = 31 g ai/ha, postemergence, scale 0 to 100, 0 is no effect, 100 is complete control
[16] = 62 g ai/ha, postemergence, 0 is no effect, 100 is complete control, 13 to 15 days
[17] = Postemergence, 125 g ai/ha, visual rating after 13 to 15 days, scale 0 (no effect) to 100 (complete control)
[18] = Postemergence, 250 g ai/ha, scale 0 to 100 (0 no effect, 100 complete control)
[19] = 31 g ai/ha, scale 0 to 100 (0 no effect, 100 complete control)
[20] = 62 g ai/ha, scale 0 to 100, 0 no effect, 100 complete control
[21] = 125 g ai/ha, scale 0 to 100, 0 no effect, 100 complete control
[22] = 250 g ai/ha, Preemergence, 0 to 100 scale
[23] = Preemergence, 31 g ai/ha, scale 0 to 100 (0 no effect, 100 complete control)
[24] = Preemergence, 62 g ai/ha, scale 0 to 100, 0 no effect, 100 complete control
[25] = Preemergence, 125 g ai/ha, scale 0 to 100, 0 no effect, 100 complete control
[26] = 62 g ai/ha, scale of 0 to 100 where 0 is no effect and 100 is complete control
[27] = 125 g ai/ha, scale 0 to 100, 0 is no effect, 100 is complete control
[28] = Flood, 31 g ai/ha, scale 0 to 100 (0 no effect, 100 complete control)
[29] = Postemergence, 62 g ai/ha, scale 0 (no effect) to 100 (complete control), 13 to 15 days
[30] = 31 g ai/ha, scale of 0 to 100 where 0 is no effect and 100 is complete control

CC(C)Cc1ncc(C(=O)C2=C(O)CCCC2=O)c(=O)n1-c1ccccc1 [Compound 68]
Plant response rating, Windgrass [1, 15]: 40
Windgrass plant response rating (0 to 100 scale) [1, 16]: 50
Plant response rating, Windgrass [1, 17]: 65
Plant response rating, Windgrass [1, 18]: 85
Plant response rating, Chickweed [2, 15]: 85
Chickweed plant response rating (0 to 100 scale) [2, 16]: 90
Plant response rating, Chickweed [2, 17]: 98
Plant response rating, Chickweed [2, 18]: 100
Plant response rating, Canarygrass [3, 15]: 0
Canarygrass plant response rating (0 to 100 scale) [3, 16]: 0
Plant response rating, Canarygrass [3, 17]: 35
Plant response rating, Canarygrass [3, 18]: 35
Plant response rating, Barley [4, 15]: 0
Barley plant response rating (0 to 100 scale) [4, 16]: 0
Plant response rating, Barley [4, 17]: 25
Plant response rating, Barley [4, 18]: 30
Plant response rating, Galium ([5]; 250 g ai/ha, 0 to 100 scale): 85
Plant response rating, Galium [5, 19]: 0
Plant response rating, Galium [5, 20]: 70
Plant response rating, Galium [5, 21]: 70
Plant response rating, Russian Thistle [6]: 80
Plant response rating, Bermudagrass [7, 15]: 75
Bermudagrass plant response rating (0 to 100 scale) [7, 16]: 75
Plant response rating, Bermudagrass [7, 22]: 100
Plant response rating, Bermudagrass [7, 17]: 95
Plant response rating, Bermudagrass [7, 18]: 98
Plant response rating, Bermudagrass [7, 23]: 95
Plant response rating, Bermudagrass [7, 24]: 98
Plant response rating, Bermudagrass [7, 25]: 98
Plant response rating, Nightshade [8, 19]: 98
Plant response rating, Nightshade [8, 20]: 98
Plant response rating, Nightshade [8, 21]: 100
Plant response rating, Sunflower [9, 19]: 0
Plant response rating, Sunflower [9, 20]: 60
Plant response rating, Sunflower [9, 21]: 75
Plant response rating, Morningglory [10, 15]: 80
Morningglory plant response rating (0 to 100 scale) [10, 16]: 85
Plant response rating, Morningglory [10, 17]: 98
Plant response rating, Morningglory [10, 18]: 100
Plant response rating, Morningglory [10, 23]: 0
Plant response rating, Morningglory [10, 24]: 55
Plant response rating, Morningglory [10, 25]: 65
Plant response rating, Flood, Ducksalad [11]: 40
Plant response rating, Ducksalad [11, 26]: 0
Plant response rating, Ducksalad [11, 27]: 30
Ducksalad plant response rating [11, 28]: 0
Plant response rating, Flood, Barnyardgrass [12]: 20
Plant response rating, Barnyardgrass [12, 26]: 0
Plant response rating, Barnyardgrass [12, 27]: 0
Barnyardgrass plant response rating [12, 28]: 0
Plant response rating, Flood, Sedge, Umbrella [13]: 0
Plant response rating, Sedge, Umbrella [13, 26]: 0
Plant response rating, Sedge, Umbrella [13, 27]: 0
Sedge, Umbrella plant response rating [13, 28]: 0
Plant response rating, Flood, Rice [14]: 30
Plant response rating, Rice [14, 26]: 15
Plant response rating, Rice [14, 27]: 20
Rice plant response rating [14, 28]: 0

Cc1cccc(-n2c(-c3ccccc3)ncc(C(=O)C3=C(O)CCCC3=O)c2=O)c1F [Compound 58]
Plant response rating, Windgrass [1, 15]: 35
Plant response rating, Windgrass [1, 29]: 50
Plant response rating, Windgrass [1, 17]: 60
Plant response rating, Windgrass [1, 18]: 70
Plant response rating, Chickweed [2, 15]: 70
Plant response rating, Chickweed [2, 29]: 80
Plant response rating, Chickweed [2, 17]: 90
Plant response rating, Chickweed [2, 18]: 90
Plant response rating, Canarygrass [3, 15]: 60
Plant response rating, Canarygrass [3, 29]: 60
Plant response rating, Canarygrass [3, 17]: 80
Plant response rating, Canarygrass [3, 18]: 85
Plant response rating, Barley [4, 15]: 5
Plant response rating, Barley [4, 29]: 5
Plant response rating, Barley [4, 17]: 5
Plant response rating, Barley [4, 18]: 10
Plant response rating, Galium ([5]; 250 g ai/ha, 0 to 100 scale): 80
Plant response rating, Galium [5, 19]: 0
Plant response rating, Galium [5, 20]: 0
Plant response rating, Galium [5, 21]: 30
Plant response rating, Bermudagrass [7, 15]: 85
Plant response rating, Bermudagrass [7, 22]: 100
Plant response rating, Bermudagrass [7, 29]: 85
Plant response rating, Bermudagrass [7, 17]: 98
Plant response rating, Bermudagrass [7, 18]: 100
Plant response rating, Bermudagrass [7, 23]: 98
Plant response rating, Bermudagrass [7, 24]: 98
Plant response rating, Bermudagrass [7, 25]: 100
Plant response rating, Nightshade [8, 19]: 90
Plant response rating, Nightshade [8, 20]: 98
Plant response rating, Nightshade [8, 21]: 98
Plant response rating, Sunflower [9, 19]: 0
Plant response rating, Sunflower [9, 20]: 55
Plant response rating, Sunflower [9, 21]: 65
Plant response rating, Morningglory [10, 15]: 65
Plant response rating, Morningglory [10, 29]: 80
Plant response rating, Morningglory [10, 17]: 90
Plant response rating, Morningglory [10, 18]: 90
Plant response rating, Morningglory [10, 23]: 0
Plant response rating, Morningglory [10, 24]: 0
Plant response rating, Morningglory [10, 25]: 55
Plant response rating, Flood, Ducksalad [11]: 0
Plant response rating, Ducksalad [11, 30]: 0
Plant response rating, Ducksalad [11, 26]: 0
Plant response rating, Ducksalad [11, 27]: 0
Plant response rating, Flood, Barnyardgrass [12]: 0
Plant response rating, Barnyardgrass [12, 30]: 0
Plant response rating, Barnyardgrass [12, 26]: 0
Plant response rating, Barnyardgrass [12, 27]: 0
Plant response rating, Flood, Sedge, Umbrella [13]: 0
Plant response rating, Sedge, Umbrella [13, 30]: 0
Plant response rating, Sedge, Umbrella [13, 26]: 0
Plant response rating, Sedge, Umbrella [13, 27]: 0
Plant response rating, Flood, Rice [14]: 0
Plant response rating, Rice [14, 30]: 0
Plant response rating, Rice [14, 26]: 0
Plant response rating, Rice [14, 27]: 0
